# Test results reported in BindingDB's records for doi:10.1021/acs.jmedchem.6b00397 (IQM-CSIC, 2016).
# Biological target: Cannabinoid receptor 2 (Homo sapiens, UniProt P34972)
# Assay: Displacement of [3H]-CP55940 from human CB2 receptor expressed in HEK293 cell membranes after 90 mins by liquid scintillation counting method
# Cannabinoid receptor 2, sequence (P34972 whole entry): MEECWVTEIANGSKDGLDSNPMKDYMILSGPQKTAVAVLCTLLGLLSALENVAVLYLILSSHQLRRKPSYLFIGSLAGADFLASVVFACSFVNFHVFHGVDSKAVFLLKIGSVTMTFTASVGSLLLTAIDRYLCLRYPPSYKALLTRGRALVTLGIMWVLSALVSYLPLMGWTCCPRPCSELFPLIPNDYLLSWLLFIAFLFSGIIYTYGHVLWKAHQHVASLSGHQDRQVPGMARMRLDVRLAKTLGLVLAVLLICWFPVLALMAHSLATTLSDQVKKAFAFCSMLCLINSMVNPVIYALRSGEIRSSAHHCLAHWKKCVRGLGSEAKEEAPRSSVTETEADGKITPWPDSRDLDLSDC
row,SMILES,Ki [µM]
1,CCCCCCC(C)(C)c1cc(O)c2c(c1)OC(C)(C)c1cn(C)nc1-2,> 40
2,CCCCCCC(C)(C)c1cc(O)c2c(c1)OC(C)(C)c1cnn(-c3ccc(Cl)cc3Cl)c1-2,> 40
3,CCCCCCC(C)(C)c1cc(O)c2c(c1)OC(C)(C)c1cn(CC)nc1-2,> 40
4,CCCCCCC(C)(C)c1cc(O)c2c(c1)OC(C)(C)c1cnn(CC)c1-2,> 40
